How the values were obtained:
[1] = system: CAL-62 tumor; test: CAL-62 subcutaneous xenograft treatment experiment with H&E and TUNEL staining; assay type: in vivo, BALB/C nude mice; conditions: tumor sections after treatment, compared to PBS group
Experimental: (§1) To reduce the unnecessary thyroid uptake of ^131I, before the in vivo experiments, all nude mice were fed potassium iodide in a concentration of 0.1% for 3 days to saturate the thyroid. CAL-62 tumor-bearing mice were randomly divided into four groups (n = 5 per group) that received one of the following treatments: PBS, F1 only, ^131I-F1, ^131I only. The mice were injected intratumorally with 100 µl PBS containing 8 µg of F1 peptide, 200 µCi of ^131I or 8 µg of F1 peptide labeled with 200 µCi ^131I every 3 days for a total of three times. Then, 3 days after the final treatment, the mice were sacrificed, and the tumors were isolated and weighed.

[2] = Body weight of CAL-62 tumor-bearing mice under treatment; assay type: in vivo, BALB/C nude mice; conditions: intratumoral, 8 µg F1 and/or 200 µCi 131I every 3 days, three times, n = 5, mean ± SD
Experimental: as §1
Next, we studied whether F1 was able to inhibit CAL-62 cell growth in vivo. Nude mice were subcutaneously injected with 5 × 10^5 CAL-62 cells. When the tumor diameters were close to 6 mm, the mice were treated with 100 µl PBS containing 8 µg of F1 peptide, 200 µCi of ^131I or 8 µg of F1 peptide labeled with 200 µCi ^131I every 3 days for a total of three times. […] The mice were euthanized, and the tumors were isolated and weighed.

[3] = system: cervical cancer cell (TC-1); conditions: 30 μg of peptide; cited from earlier work
Description: First, ^131I-F1 was successfully synthesized using the chloramine-T method. […] Furthermore, a subcutaneous xenograft model was used to investigate the antitumor activity of ^131I-F ...

Molecule | H&E staining of tumors (ablation/necrosis of tumor cells) [1] | Weight of the mice three days after the final treatment [2] [g] | Inhibitory effect on TC-1 in vivo [3]
[131I-].[Na+] [^131I, iodine-131] | only a few necrosis events | 16.43 ± 1.386 | –
caerin 1.9 [F3] | – | – | significant inhibitory effect

Source: PMC8197720, “Targeted radioimmunotherapy with the iodine-131-labeled caerin 1.1 peptide for human anaplastic thyroid cancer in nude mice” (Annals of Nuclear Medicine, 2021)
